Measurements reported in the supplement of paper PMC4121296.

What was measured:
Settings in all cases: exposure: 5-72 hpf
[1] = system: Danio rerio embryo (fli1:egfp); test: heart rate at 72 hpf (beats per minute); higher = faster heart rate
Procedure: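 fli1:egfp zebrafish embryos exposed 5-72 hpf to chemical (0.05-50 µM, 0.1% DMSO) in 384-well plates; heart rate at 72 hpf quantified from stream acquisitions by semi-automated MetaXpress journal (peak counting); only embryos in concentrations passing survival/body-length criteria analyzed.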

[2] = system: Danio rerio embryo (fli1:egfp); test: body length at 72 hpf (µm); higher = longer body (less growth inhibition)
Procedure: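 Transgenic fli1:egfp zebrafish embryos (one per well, 384-well plate) exposed statically from 5 to 72 hpf at 28 °C to chemical (0.05-50 µM, 0.1% DMSO); at 72 hpf anesthetized and imaged on ImageXpress; body length of live, hatched, correctly oriented embryos measured by automated MetaXpress journal. Dead/unhatched/misoriented embryos have no value.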

[3] = system: Danio rerio embryo (fli1:egfp); test: pericardial area at 72 hpf (image area units (not stated)); higher = larger pericardial area (edema)
Procedure: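 fli1:egfp zebrafish embryos exposed 5-72 hpf to chemical (0.05-50 µM, 0.1% DMSO); pericardial area at 72 hpf measured by semi-automated MetaXpress journal (increase indicates edema).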

[4] = system: Danio rerio embryo (fli1:egfp); test: arterial (dorsal aorta) circulation score at 72 hpf (normalized DA-Max (arbitrary units)); higher = more circulation
Procedure: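 fli1:egfp zebrafish embryos exposed 5-72 hpf to chemical (0.05-50 µM, 0.1% DMSO); arterial circulation at 72 hpf quantified from stream acquisitions of the dorsal aorta by FFT-based analysis (DA-Max, normalized dorsal aorta signal); only concentrations passing survival/body-length criteria analyzed.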

[5] = system: Danio rerio embryo (fli1:egfp); test: intersegmental vessel area normalized to body length at 72 hpf (ISV area / body length (normalized units)); higher = more vessel area
Procedure: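 fli1:egfp zebrafish embryos exposed 5-72 hpf to chemical (0.05-50 µM, 0.1% DMSO); intersegmental vessel (ISV) eGFP area quantified by MetaXpress journal at 72 hpf and normalized to body length.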

CCOc1cc(Oc2ccc(C(F)(F)F)cc2Cl)ccc1[N+](=O)[O-] [Oxyfluorfen]
Settings	arterial, [4]	body length at 72 hpf, [2]	heart rate at 72 hpf, [1]	intersegmental vessel area normalized, [5]	pericardial area at 72 hpf, [3]
0.0244 µM	12.2	3050	183	86.8	14300
0.05 µM	15	3020	178	86.7	14500
0.098 µM	13.5	2990	180	88.8	14900
0.195 µM	15.8	2990	187	79	14500
0.39 µM	14.3	2990	185	95.7	15500
0.78 µM	13.4	3000	192	90.7	13400
1.56 µM	14.4	2850	190	89.4	13400
3.125 µM	12	2980	193	87.2	16200
6.25 µM	10.5	2960	194	100	15900
12.5 µM	7.87	2840	192	90.5	15300
25 µM	–	2660	–	–	–

CN(C)C(=S)SSC(=S)N(C)C [Thiram]
Settings	arterial, [4]	body length at 72 hpf, [2]	heart rate at 72 hpf, [1]	intersegmental vessel area normalized, [5]	pericardial area at 72 hpf, [3]
95 pM	9.22	3070	180	95.8	11600
0.00019 µM	11.1	3010	187	101	11600
0.00038 µM	9.48	3060	179	97.6	12500
0.00076 µM	10.3	3020	192	98.6	11500
0.0015 µM	11	3050	191	95.6	11200
0.003 µM	9.4	3070	196	99.4	12900
0.0061 µM	8.74	3050	196	110	14600
0.0122 µM	9.58	3070	189	99.1	12000
0.0244 µM	11.3	3080	179	97.9	12400

CC(C)[C@H](C(=O)O[C@H](C#N)c1cccc(Oc2ccccc2)c1)c1ccc(Cl)cc1 [Esfenvalerate]
Settings	arterial, [4]	body length at 72 hpf, [2]	heart rate at 72 hpf, [1]	intersegmental vessel area normalized, [5]	pericardial area at 72 hpf, [3]
0.05 µM	9.88	3070	184	72.5	14800
0.098 µM	10.8	3140	182	76.8	16600
0.195 µM	10.1	3150	196	76.2	14700
0.39 µM	10.9	3090	198	76.1	15300
0.78 µM	10.1	3140	195	75.7	15800
1.56 µM	10.3	3160	194	63.9	15900
3.125 µM	13.2	2970	188	88.9	14100
6.25 µM	11.9	2830	188	88.2	14600
12.5 µM	–	2760	–	–	–
25 µM	–	2640	–	–	–
50 µM	–	2750	–	–	–

CO/N=C(/C1=NOCCO1)c1ccccc1Oc1ncnc(Oc2ccccc2Cl)c1F [Fluoxastrobin]
Settings	arterial, [4]	body length at 72 hpf, [2]	heart rate at 72 hpf, [1]	intersegmental vessel area normalized, [5]	pericardial area at 72 hpf, [3]
0.0061 µM	13.7	2970	182	70.3	12700
0.0122 µM	15	2930	189	71.6	14000
0.0244 µM	11.9	2900	188	76	13500
0.05 µM	15.2	2970	194	79.4	14300
0.098 µM	12.6	2980	198	82.8	14900
0.195 µM	16.2	2990	198	75.3	14200
0.39 µM	13.1	2970	194	77.9	15000
0.78 µM	13.9	2940	191	67.2	13900
1.56 µM	12.1	2910	177	80.3	17100
3.125 µM	6.76	3010	161	64.8	28800

CCN(Cc1c(F)cccc1Cl)c1c([N+](=O)[O-])cc(C(F)(F)F)cc1[N+](=O)[O-] [Flumetralin]
Settings	arterial, [4]	body length at 72 hpf, [2]	heart rate at 72 hpf, [1]	intersegmental vessel area normalized, [5]
0.05 µM	16.7	3020	183	67.3
0.098 µM	16.1	3080	174	74.9
0.195 µM	16.8	3050	177	79.1
0.39 µM	15	3010	176	72.5
0.78 µM	15.4	2980	181	76.2
1.56 µM	15.1	2850	182	84
3.125 µM	–	2770	–	–
6.25 µM	–	2670	–	–
12.5 µM	–	2670	–	–
25 µM	–	2670	–	–
50 µM	–	2620	–	–

CCOC(=O)COc1cc(-n2ncc(C(F)(F)F)c(C)c2=O)c(F)cc1Cl [Flufenpyr-ethyl]
Settings	arterial, [4]	body length at 72 hpf, [2]	heart rate at 72 hpf, [1]	intersegmental vessel area normalized, [5]	pericardial area at 72 hpf, [3]
0.05 µM	8.79	2990	169	84.4	12800
0.098 µM	9.74	3000	178	70.8	13000
0.195 µM	9.58	3040	181	75.2	12300
0.39 µM	8.94	3080	180	77.1	13600
0.78 µM	9.32	3020	186	74.8	13300
1.56 µM	8.81	3020	182	75.8	13600
3.125 µM	6.7	2950	181	82.9	15300
6.25 µM	5.21	2810	166	83.5	25900

O=C(O)c1cc(Oc2ccc(C(F)(F)F)cc2Cl)ccc1[N+](=O)[O-] [Acifluorfen]
Settings	arterial, [4]	body length at 72 hpf, [2]	heart rate at 72 hpf, [1]	intersegmental vessel area normalized, [5]	pericardial area at 72 hpf, [3]
0.05 µM	16.3	2970	168	81.7	14900
0.098 µM	14.7	3000	169	82.8	17600
0.195 µM	14.4	3030	166	89.2	16700
0.39 µM	15.6	3000	168	82.3	16700
0.78 µM	14.4	2970	167	92.9	15600
1.56 µM	15.9	3040	164	82.3	16400
3.125 µM	15.2	3030	164	85.2	17500
6.25 µM	14.2	3030	177	89.2	19400
12.5 µM	16.1	3020	175	89.5	15900
25 µM	15.6	2960	175	89.3	15500
50 µM	14.5	2980	180	99.8	15800

Cc1nn(-c2cc(NS(C)(=O)=O)c(Cl)cc2Cl)c(=O)n1C(F)F [Sulfentrazone]
Settings	arterial, [4]	body length at 72 hpf, [2]	heart rate at 72 hpf, [1]	intersegmental vessel area normalized, [5]	pericardial area at 72 hpf, [3]
0.05 µM	11.4	3000	156	77.2	17900
0.098 µM	11.7	2990	158	76.8	16100
0.195 µM	12.6	2990	158	71.2	16300
0.39 µM	9.83	2970	157	72.4	15600
0.78 µM	11.3	2920	161	78.9	16100
1.56 µM	8.91	2930	163	72.4	18600
3.125 µM	8.71	2970	162	71.4	17200
6.25 µM	8.86	3030	167	69.7	20400
12.5 µM	7.1	3020	170	74.8	18700
25 µM	11.1	2970	169	71.2	21700
50 µM	5.34	2950	173	71.2	21200

C#CCOC(=O)[C@@H](C)Oc1ccc(Oc2ncc(Cl)cc2F)cc1 [Clodinafop-propargyl]
Settings	arterial, [4]	body length at 72 hpf, [2]	heart rate at 72 hpf, [1]	intersegmental vessel area normalized, [5]	pericardial area at 72 hpf, [3]
0.0244 µM	11.8	3010	177	65.9	14100
0.05 µM	14.5	2990	168	84.8	13100
0.098 µM	12.3	2960	173	79	12900
0.195 µM	16.7	3060	183	76.8	13800
0.39 µM	14.4	3000	188	87.1	15200
0.78 µM	14.4	3000	185	73.6	15400
1.56 µM	12	3030	190	84	13500
3.125 µM	14.8	3030	191	82.7	12900
6.25 µM	12.5	2930	193	82.8	12900
12.5 µM	13.6	2940	196	89.6	13000

CCCCCOC(=O)COc1cc(N2C(=O)C3=C(CCCC3)C2=O)c(F)cc1Cl [Flumiclorac-pentyl]
Settings	arterial, [4]	body length at 72 hpf, [2]	heart rate at 72 hpf, [1]	intersegmental vessel area normalized, [5]	pericardial area at 72 hpf, [3]
0.05 µM	11.7	3040	166	55.7	14500
0.098 µM	10.9	2980	159	66.5	15200
0.195 µM	10.3	2960	166	62.8	16200
0.39 µM	10.7	2950	175	66.4	15300
0.78 µM	9.99	3000	170	60.7	15200
1.56 µM	11.6	3000	178	62.7	16100
3.125 µM	11	2990	182	61.8	17000
6.25 µM	8.2	2960	185	65.1	16400
12.5 µM	8.36	3000	182	69.4	17700
